What all share (assay type): in vivo, human
Assay [1] concerns Parkinson's disease (PD) patients. In words: Go/No-Go (GNG) Test in Parkinson's disease patients, double-blind crossover study. Conditions: for GNG reaction times: vs placebo plus levodopa. From the text: (§1) Continuous performance testing, in various forms, has become a standard clinical procedure. Generally speaking, continuous performance testing evaluates a subject's visual attention by displaying a series of visual stimuli, to which the subject is instructed to respond. In a typical case, often referred to as a “Go—No Go” test, the stimuli are of two types (the “Go” and “No Go” stimuli); the subject is instructed to respond only to the “Go” stimulus, and not to respond or “pass” when presented with the “No Go” stimulus. Data collected for each stimulus presented consists of the type of the stimulus; whether or not the subjects responded; and, if so, how long they took to respond. The continuous performance test has been in use since the 1950s.
(§2) Parkinson's disease (PD) patients participated in a double-blind, crossover study to assess the effect of co-administration of an A2a antagonist with a dopamine precursor on cognition and motor function. The A2a antagonist was 4-hydroxy-4-methyl-piperidine-1-carboxylic acid-(4-methoxy-7-morpholin-4-yl-benzothiazol-2-yl)-amide and the dopamine precursor was levodopa.
(§3) The patients were randomly allocated to 1 week of 4-hydroxy-4-methyl-piperidine-1-carboxylic acid-(4-methoxy-7-morpholin-4-yl-benzothiazol-2-yl)-amide and levodopa, 1 week washout (levodopa only), then 1 week placebo plus levodopa or the reverse order. Optimal levodopa doses were established for each patient according to normal clinical practice. Active drug was administered at 60 mg bid (N=14) or 20 mg bid (N=12) of 4-hydroxy-4-methyl-piperidine-1-carboxylic acid-(4-methoxy-7-morpholin-4-yl-benzothiazol-2-yl)-amide. At the end of each treatment week, participants completed motor assessments, a Continuous Performance Test (CPT), a Go/No-Go (GNG) Test, and a 2-Back Test after overnight withdrawal of levodopa and again after intravenous (IV) infusion of a suboptimal level of levodopa.
Subjects monitored a visual display while single uppercase letters were presented one at a time interspersed with the number “5”. Participants were instructed to push a target response button at the occurrence of every letter (i.e., a “Go” response) but to withhold a response for the number 5 (i.e., a “No-Go” response). Target frequency was manipulated in a blocked fashion, with two levels of target frequency (83% letters: 17% “5”s; 50% letters: 50% “5”s).

For assay [2] the test system is unchanged. In words: 2-Back Test in Parkinson's disease patients, double-blind crossover study. The following applies: either dose (60 mg bid, 20 mg bid) with levodopa; all p-values>0.05.
From the text: as §2, §3

Assay [3] shares this test system. In words: Continuous Performance Test (CPT) in Parkinson's disease patients, double-blind crossover study. The following applies: either dose (60 mg bid, 20 mg bid) with levodopa; all p-values>0.05.
From the text: as §1, §2
The patients were randomly allocated to 1 week of 4-hydroxy-4-methyl-piperidine-1-carboxylic acid-(4-methoxy-7-morpholin-4-yl-benzothiazol-2-yl)-amide and levodopa, 1 week washout (levodopa only), then 1 week placebo plus levodopa or the reverse order. […]

For assay [4] the test system is unchanged. Kind of assay: Participant-reported sleepiness in Parkinson's disease patients, double-blind crossover study. Conditions: compared to placebo.
From the text: as §2, §3

For assay [5] the test system is unchanged. Kind of assay: Motor assessments (tapping speed, UPDRS item) in Parkinson's disease patients, double-blind crossover study.
From the text: as §2, §3

[6] abbreviates: FIG. 1 legend, A2a antagonist compared with placebo, dose not stated.

Molecules are shown by their SMILES.

Consider `COc1ccc(N2CCOCC2)c2sc(NC(=O)N3CCC(C)(O)CC3)nc12` [4-hydroxy-4-methyl-piperidine-1-carboxylic acid-(4-methoxy-7-morpholin-4-yl-benzothiazol-2-yl)-amide], for which the GNG reaction times entry in assay [1] (20 mg bid for 1 week with levodopa, p=0.05, N=12) was “faster GNG reaction times”; in assay [1] (60 mg bid for 1 week with levodopa, p<0.01, N=14) it was “faster GNG reaction times”. Besides, the GNG accuracy entry in assay [1] (60 mg bid and 20 mg bid with levodopa, ps>0.25) was “without reduced accuracy”. Besides, in assay [1] (setting [6]), the “Go/No-Go task mistakes (FIG. 1)” value is on record as “fewer mistakes”. The “Go/No-Go task reaction time (FIG. 1)” value in assay [1] (setting [6]) is reported as “reaction times are faster”. Also, in assay [2], the “effect on the 2-Back test” value is “no significant effects”. Besides, the “effect on the CPT test” value in assay [3] is “no significant effects”. Also, the reported sleepiness entry in assay [4] (20 mg bid, p>0.05) is “no significant difference”; in assay [4] (60 mg bid, before and after levodopa, p<0.05), “less sleepiness”. For the same compound, the “rapidly alternating hand movements item from the UPDRS” value in assay [5] (60 mg bid and levodopa, p=0.03) is “significant”. Moreover, the tapping speed entry in assay [5] (60 mg bid, before and after levodopa, p: 0.05) is “significant motor benefit”.

Values taken from patent US20220125772A1, “A2A ANTAGONISTS AS COGNITION AND MOTOR FUNCTION ENHANCERS” (Biotie Therapies, Inc., priority 2010, published 2022).
